Activity calls are given as the source filed them. The rule behind the calls is not given here.
Tests used:
[1] = tested on: Mus musculus; assay: Radioprotective activity in C57BL/6J mouse model assessed as upregulation of G-CSF expression at 300 mg/kg, ip measured after 2 hrs of 7.5 Gy radiation by ELISA analysis; format: functional, organism-based
[2] = tested on: AHH-1; assay: Induction of apoptosis in human AHH-1 cells assessed as viable cells preincubated with compound for 24 hrs followed by irradiation with 6 Gy and measured after 24 hrs of radiation by Annexin V-FITC/PI staining based flow cytometry analysis (reference value: 52.3%); format: functional; conditions: time 48 hrs
[3] = target: T1, Toll-like receptor 2 (Homo sapiens, UniProt O60603); assay: Agonist activity at TLR2 in human HUVEC cells assessed as increase in p65 level pretreated with compound for 24 hrs in presence of ionizing irradiation by Western blotting analysis; format: cell-based; conditions: filed as agonist
[4] = tested on: Mus musculus; assay: Radioprotective activity against radiation-induced intestinal injury C57BL/6J mouse model assessed as increase in splenic index at 300 mg/kg, ip preincubated with compound for 15 to 1440 mins followed by irradiation with 13 Gy and measured after 84 hrs of radiation by H and E staining based analysis; format: functional, organism-based; conditions: time 15-6480 min
[5] = tested on: AHH-1; assay: Anti-iradiation activity against human AHH-1 cells assessed as cell viability at 10 micromol preincubated with compound for 24 hrs followed by irradiation with 8 Gy and measured after 24 hrs by CCK-8 assay; format: functional; conditions: dose 10 µmol; time 48 hrs
[6] = tested on: Mus musculus; assay: Radioprotective activity in C57BL/6J mouse assessed as increase in WBC count at 300 mg/kg, ip preincubated with compound for 15 to 1440 mins followed by irradiation at 6.5 Gy and measured at 1 to 10 days relative to Ex/RAD/control; format: functional, organism-based
[7] = tested on: Mus musculus; assay: Radioprotective activity against radiation-induced intestinal injury C57BL/6J mouse model assessed as increase in villi length at 300 mg/kg, ip preincubated with compound for 15 to 1440 mins followed by irradiation with 13 Gy and measured after 84 hrs of radiation by H and E staining based analysis; format: functional, organism-based; conditions: time 15-6480 min
[8] = tested on: Mus musculus; assay: Radioprotective activity in irradiated C57BL/6J mouse model assessed as increase in HGB count at 300 mg/kg, ip preincubated with compound for 15 to 1440 mins followed by irradiation with 6.5 Gy and measured after 1 to 10 days of radiation; format: functional, organism-based
[9] = tested on: Mus musculus; assay: Radioprotective activity in irradiated C57BL/6J mouse model assessed as increase in WBC count at 300 mg/kg, ip preincubated with compound for 15 to 1440 mins followed by irradiation with 6.5 Gy and measured after 10 to 13 days of radiation relative to Ex-RAD/control; format: functional, organism-based
[10] = tested on: Mus musculus; assay: Radioprotective activity in C57BL/6J mouse assessed as increase in body weight at 30 mg/kg, ip preincubated with compound for 15 to 1440 mins followed by irradiation and measured after 10, 14, 18, 22 and 30 days; format: functional, organism-based; conditions: time 15-44640 min
[11] = target: T1, Toll-like receptor 2; assay: Binding affinity to TLR2 (unknown origin) by SPR analysis; conditions: filed as agonist, dose 3-100 µM
[12] = tested on: AHH-1; assay: Induction of apoptosis in human AHH-1 cells assessed as viable cells preincubated with compound for 24 hrs followed by irradiation with 4 Gy and measured after 24 hrs of radiation by Annexin V-FITC/PI staining based flow cytometry analysis (reference value: 66.9 %); format: functional; conditions: time 48 hrs

T1 sequence (O60603 whole entry): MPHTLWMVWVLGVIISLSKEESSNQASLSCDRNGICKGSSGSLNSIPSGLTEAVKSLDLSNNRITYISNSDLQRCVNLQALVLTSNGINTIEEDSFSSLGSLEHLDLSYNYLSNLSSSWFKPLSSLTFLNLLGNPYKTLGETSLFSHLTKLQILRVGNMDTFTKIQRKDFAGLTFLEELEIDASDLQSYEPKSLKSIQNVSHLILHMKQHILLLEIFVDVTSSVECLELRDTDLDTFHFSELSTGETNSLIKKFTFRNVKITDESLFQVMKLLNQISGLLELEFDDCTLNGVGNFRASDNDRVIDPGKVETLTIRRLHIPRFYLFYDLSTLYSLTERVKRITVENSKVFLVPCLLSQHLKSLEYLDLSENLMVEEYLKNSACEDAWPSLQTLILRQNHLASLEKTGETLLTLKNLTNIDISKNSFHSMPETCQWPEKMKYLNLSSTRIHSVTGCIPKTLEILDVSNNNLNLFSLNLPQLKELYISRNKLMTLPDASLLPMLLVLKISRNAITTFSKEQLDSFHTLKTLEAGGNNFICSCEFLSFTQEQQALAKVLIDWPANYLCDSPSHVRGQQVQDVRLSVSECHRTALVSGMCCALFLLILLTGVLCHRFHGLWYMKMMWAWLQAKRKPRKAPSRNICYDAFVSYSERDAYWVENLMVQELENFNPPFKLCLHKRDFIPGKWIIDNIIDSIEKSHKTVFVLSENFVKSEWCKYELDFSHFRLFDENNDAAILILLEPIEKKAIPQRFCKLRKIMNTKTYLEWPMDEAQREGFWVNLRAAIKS

## [O-][S+](Cc1ccc(F)cc1)c1ccc2cc(Br)ccc2n1 (configuration not stated)
[1]
  Activity: Active
[2]
  Activity: 67.6%
[3]
  Activity: Active
[4]
  Activity: Active
[5]
  Activity: 55.86%
[6]
  Activity: Active
[7]
  Activity: Active
[8]
  Activity: inactive
[9]
  Activity: Active
[10]
  Activity: Active
[11]
  Activity: Dose-Dependent Effect
[12]
  Activity: 72.4%

From ChEMBL document CHEMBL5505982, “Design, synthesis, biological evaluation and in silico studies of novel quinoline derivatives as potential radioprotective molecules targeting the TLR2 and p53 pathways” (Eur J Med Chem, 2024)
